The text below walks through data of publication PMC11045757, “Group 3 medulloblastoma transcriptional networks collapse under domain specific EP300/CBP inhibition” (Nature Communications, 2024).

Values joined by “and” are separate entries in the source; they are usually repeats but may differ in a detail not shown here. Equal values may be shown once. Read-outs that look alike come from different tables or passages of the source.

The test system of assay [1] is HDMB03 (HDMBO3) group 3 medulloblastoma cells. Kind of assay: CellTiter-Glo dose-response growth assay. Format: cell-based. The conditions noted are these: for normalized growth (fraction of control), replicate values: HDMBO3, log10[compound]; for IC50: Homo sapiens. An outline of the steps:
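Growth of the G3MB line HDMB03 was assessed across compound concentrations. Cells went into 384-well plates at 500 cells per well in growth medium and were exposed to compound for the indicated time. A CellTiter-Glo luminescence assay, run per manufacturer instructions and read on an Envision 2104 instrument, quantified remaining cell growth.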
For orientation: Cellular ATP, detected with luciferase, serves as a proxy for viable cell number.

Assay [2] deals with MB002 group 3 medulloblastoma cells. Kind of assay: CellTiter-Glo dose-response growth assay. Format: cell-based. To be noted: for IC50: MB002, 72 h, day 3, read-out: d3 IC50 MB002; for normalized growth (fraction of control), replicate values: MB002, log10[compound]. An outline of the steps: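 This is a dose-response growth assay in MB002 cells, a group 3 medulloblastoma line. Cells were plated at 500 cells/well in 384-well plates containing growth media and treated with compound over a concentration series. After the noted incubation period, CellTiter-Glo reagent was applied per the manufacturer's protocol and luminescence was read on an Envision 2104 microplate reader.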

For the next assay, the target named is T1, BRD4-BD1 (BRD4-1) (Homo sapiens, UniProt O60885).
T1 construct: BRD4-BD1 (residues 44-168); 6xHis (cleaved yes); host or cells: E. coli BL21 (DE3) RIL
Kind of assay: Differential scanning fluorimetry (DSF) thermal shift. Format: binding. In short, it runs like this: (§1)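 Thermal shift of 5 μM E. coli-expressed bromodomain with 100 μM compound in 50 mM HEPES pH 7.5, 150 mM NaCl, 2 mM DTT, 2% DMSO, 5X SYPRO Orange, quadruplicate. Heated 25→95 °C at 1 °C/min, fluorescence at 610 nm; ΔTm relative to DMSO reference wells.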
A general note: In DSF a fluorescence change marks the thermal transition of the protein.

A further assay concerns the target T2, EP300 bromodomain (Homo sapiens, UniProt Q09472).
T2 construct: 6xHis (cleaved yes); host or cells: E. coli BL21 (DE3) RIL
T2 sequence (Q09472 1048-1161): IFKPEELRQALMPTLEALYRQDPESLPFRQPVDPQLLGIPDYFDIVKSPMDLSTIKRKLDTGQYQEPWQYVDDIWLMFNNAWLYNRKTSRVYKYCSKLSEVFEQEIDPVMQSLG
Described as above. Format: binding. In short, it runs like this: as §1

In a further assay the target is T3, BAZ2A (Homo sapiens, UniProt Q9UIF9).
T3 construct: purchased Eurofins DiscoverX (BROMOscan)
Kind of assay: BromoScan profiling (DiscoverX). Format: binding. To be noted: read-out: Percent Control BAZ2A.

The next assay concerns the target T4, BAZ2B (Homo sapiens, UniProt Q9UIF8).
T4 construct: purchased Eurofins DiscoverX (BROMOscan)
Briefly: BromoScan profiling (DiscoverX). In kind it is binding. The conditions noted are these: read-out: Percent Control BAZ2B.

For the next assay, the target named is T5, BRD2(1) (Homo sapiens, UniProt P25440).
T5 construct: BRD2(1); purchased Eurofins DiscoverX (BROMOscan)
Kind of assay: BromoScan profiling (DiscoverX). In kind it is binding. To be noted: read-out: Percent Control BRD2(1).

A further assay has as its target T6, BRD2(2) (Homo sapiens, UniProt P25440).
T6 construct: BRD2(2); purchased Eurofins DiscoverX (BROMOscan)
Kind of assay: BromoScan profiling (DiscoverX). To be noted: read-out: Percent Control BRD2(2). Format: binding.

The target of another assay is T7, BRDT(1) (Homo sapiens, UniProt Q58F21).
T7 construct: BRDT(1); purchased Eurofins DiscoverX (BROMOscan)
Kind of assay: BromoScan profiling (DiscoverX). In kind it is binding. The conditions noted are these: read-out: Percent Control BRDT(1).

In a further assay the target is T8, EP300 (Homo sapiens, UniProt Q09472).
T8 construct: purchased Eurofins DiscoverX (BROMOscan)
Briefly: BromoScan profiling (DiscoverX). Format: binding. To be noted: read-out: Percent Control EP300.

The next assay has as its target T9, FALZ (Homo sapiens, UniProt Q12830).
T9 construct: purchased Eurofins DiscoverX (BROMOscan)
Briefly: BromoScan profiling (DiscoverX). In kind it is binding. The conditions noted are these: read-out: Percent Control FALZ.

Another assay has as its target T10, GCN5L2 (Homo sapiens, UniProt Q92830).
T10 construct: purchased Eurofins DiscoverX (BROMOscan)
Briefly: BromoScan profiling (DiscoverX). Format: binding. To be noted: read-out: Percent Control GCN5L2.

A further assay deals with T11, PBRM1(2) (Homo sapiens, UniProt Q86U86).
T11 construct: PBRM1(2); purchased Eurofins DiscoverX (BROMOscan)
Kind of assay: BromoScan profiling (DiscoverX). In kind it is binding. The conditions noted are these: read-out: Percent Control PBRM1(2).

The target in the next assay is T12, PBRM1(5) (Homo sapiens, UniProt Q86U86).
T12 construct: PBRM1(5); purchased Eurofins DiscoverX (BROMOscan)
Kind of assay: BromoScan profiling (DiscoverX). In kind it is binding. To be noted: read-out: Percent Control PBRM1(5).

The target in a further assay is T13, PCAF (Homo sapiens, UniProt Q92831).
T13 construct: purchased Eurofins DiscoverX (BROMOscan)
Briefly: BromoScan profiling (DiscoverX). Format: binding. To be noted: read-out: Percent Control PCAF.

The target in the next assay is T14, SMARCA4 (Homo sapiens, UniProt P51532).
T14 construct: purchased Eurofins DiscoverX (BROMOscan)
Kind of assay: BromoScan profiling (DiscoverX). In kind it is binding. To be noted: read-out: Percent Control SMARCA4.

A further assay has as its target T15, TRIM24(PHD,Bromo.) (Homo sapiens, UniProt O15164).
T15 construct: purchased Eurofins DiscoverX (BROMOscan)
Briefly: BromoScan profiling (DiscoverX). The conditions noted are these: read-out: Percent Control TRIM24(PHD,Bromo.). In kind it is binding.

The next assay has as its target T16, WDR9(2) (Homo sapiens, UniProt Q9NSI6).
T16 construct: WDR9(2); purchased Eurofins DiscoverX (BROMOscan)
Kind of assay: BromoScan profiling (DiscoverX). In kind it is binding. To be noted: read-out: Percent Control WDR9(2).

Where [3] appears, read: HD-MB03, 72 h, day 3, read-out: d3 IC50 HDMBO3.
Where [4] appears, read: DSF, 5 μM protein, 100 μM compound, three independent experiments, average ± SD.

What is called IC50 is the midpoint of a concentration-inhibition curve.

T10 sequence (Q92830 whole entry): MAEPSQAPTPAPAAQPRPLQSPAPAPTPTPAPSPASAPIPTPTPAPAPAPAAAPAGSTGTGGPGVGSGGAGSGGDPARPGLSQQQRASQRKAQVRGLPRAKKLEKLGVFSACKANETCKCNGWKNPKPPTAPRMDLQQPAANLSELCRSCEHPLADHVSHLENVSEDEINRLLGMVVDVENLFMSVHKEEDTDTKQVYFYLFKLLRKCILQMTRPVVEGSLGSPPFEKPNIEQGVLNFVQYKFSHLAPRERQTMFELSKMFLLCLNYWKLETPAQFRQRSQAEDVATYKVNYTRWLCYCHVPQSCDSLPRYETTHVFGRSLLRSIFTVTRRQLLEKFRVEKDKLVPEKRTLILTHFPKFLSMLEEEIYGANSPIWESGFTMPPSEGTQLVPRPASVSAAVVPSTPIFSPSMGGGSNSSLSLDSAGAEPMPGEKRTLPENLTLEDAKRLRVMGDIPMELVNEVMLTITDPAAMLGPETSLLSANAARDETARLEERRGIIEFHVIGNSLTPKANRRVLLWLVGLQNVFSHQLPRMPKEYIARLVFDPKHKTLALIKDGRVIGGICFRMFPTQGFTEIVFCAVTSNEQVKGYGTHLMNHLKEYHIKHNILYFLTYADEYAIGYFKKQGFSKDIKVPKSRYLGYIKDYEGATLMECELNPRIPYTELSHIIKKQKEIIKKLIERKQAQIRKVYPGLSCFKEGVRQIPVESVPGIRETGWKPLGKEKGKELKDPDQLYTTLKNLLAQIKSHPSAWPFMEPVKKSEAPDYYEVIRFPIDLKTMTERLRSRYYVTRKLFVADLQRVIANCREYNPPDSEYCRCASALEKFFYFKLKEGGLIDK
T14 sequence (P51532 whole entry): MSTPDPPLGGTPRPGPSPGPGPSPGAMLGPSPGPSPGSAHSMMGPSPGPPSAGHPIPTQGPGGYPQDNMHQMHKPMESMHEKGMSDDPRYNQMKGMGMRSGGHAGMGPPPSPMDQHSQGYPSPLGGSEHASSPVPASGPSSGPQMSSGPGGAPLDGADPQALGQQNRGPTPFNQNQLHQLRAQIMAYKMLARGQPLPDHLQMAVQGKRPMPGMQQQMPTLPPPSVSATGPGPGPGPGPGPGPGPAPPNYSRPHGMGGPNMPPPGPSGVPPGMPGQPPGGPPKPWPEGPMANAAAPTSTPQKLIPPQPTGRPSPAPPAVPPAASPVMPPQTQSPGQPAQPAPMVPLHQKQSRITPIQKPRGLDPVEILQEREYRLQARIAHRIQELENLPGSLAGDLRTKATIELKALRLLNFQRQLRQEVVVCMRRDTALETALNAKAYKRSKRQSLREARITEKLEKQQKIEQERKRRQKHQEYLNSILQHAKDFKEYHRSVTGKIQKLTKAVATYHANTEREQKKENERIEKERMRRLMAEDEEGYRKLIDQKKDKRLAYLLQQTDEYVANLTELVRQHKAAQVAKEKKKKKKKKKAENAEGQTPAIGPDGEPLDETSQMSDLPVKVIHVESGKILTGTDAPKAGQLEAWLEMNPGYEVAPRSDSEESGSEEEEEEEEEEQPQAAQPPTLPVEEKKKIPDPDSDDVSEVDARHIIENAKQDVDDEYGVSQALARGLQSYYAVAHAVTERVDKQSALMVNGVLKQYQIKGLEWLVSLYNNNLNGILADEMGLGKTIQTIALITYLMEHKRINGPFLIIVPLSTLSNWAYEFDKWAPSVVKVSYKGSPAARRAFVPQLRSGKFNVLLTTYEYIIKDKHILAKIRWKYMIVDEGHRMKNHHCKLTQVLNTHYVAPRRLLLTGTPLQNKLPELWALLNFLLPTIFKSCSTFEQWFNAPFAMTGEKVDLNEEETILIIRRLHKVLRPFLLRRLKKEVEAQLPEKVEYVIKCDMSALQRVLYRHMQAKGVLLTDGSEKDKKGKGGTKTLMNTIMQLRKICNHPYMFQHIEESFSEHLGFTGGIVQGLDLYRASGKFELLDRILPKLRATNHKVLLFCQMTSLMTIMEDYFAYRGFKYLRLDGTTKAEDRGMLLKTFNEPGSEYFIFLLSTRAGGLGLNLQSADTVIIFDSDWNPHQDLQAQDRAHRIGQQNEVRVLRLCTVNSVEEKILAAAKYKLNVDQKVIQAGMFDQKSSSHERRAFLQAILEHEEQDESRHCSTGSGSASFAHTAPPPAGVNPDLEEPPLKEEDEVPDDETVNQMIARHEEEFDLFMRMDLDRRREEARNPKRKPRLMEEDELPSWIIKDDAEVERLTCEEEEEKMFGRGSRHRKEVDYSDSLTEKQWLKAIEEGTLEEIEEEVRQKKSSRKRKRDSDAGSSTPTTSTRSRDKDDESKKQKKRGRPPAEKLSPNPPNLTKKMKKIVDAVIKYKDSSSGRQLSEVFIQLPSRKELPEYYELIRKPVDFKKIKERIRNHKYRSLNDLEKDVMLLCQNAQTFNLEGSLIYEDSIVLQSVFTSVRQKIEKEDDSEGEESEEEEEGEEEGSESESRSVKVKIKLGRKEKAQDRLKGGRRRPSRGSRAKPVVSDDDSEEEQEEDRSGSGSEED
T11 sequence (Q86U86 178-291 limits assumed): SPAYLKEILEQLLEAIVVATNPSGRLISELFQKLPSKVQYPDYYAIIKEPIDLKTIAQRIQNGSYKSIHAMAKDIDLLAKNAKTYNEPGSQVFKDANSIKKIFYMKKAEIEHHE
T3 sequence (Q9UIF9 whole entry): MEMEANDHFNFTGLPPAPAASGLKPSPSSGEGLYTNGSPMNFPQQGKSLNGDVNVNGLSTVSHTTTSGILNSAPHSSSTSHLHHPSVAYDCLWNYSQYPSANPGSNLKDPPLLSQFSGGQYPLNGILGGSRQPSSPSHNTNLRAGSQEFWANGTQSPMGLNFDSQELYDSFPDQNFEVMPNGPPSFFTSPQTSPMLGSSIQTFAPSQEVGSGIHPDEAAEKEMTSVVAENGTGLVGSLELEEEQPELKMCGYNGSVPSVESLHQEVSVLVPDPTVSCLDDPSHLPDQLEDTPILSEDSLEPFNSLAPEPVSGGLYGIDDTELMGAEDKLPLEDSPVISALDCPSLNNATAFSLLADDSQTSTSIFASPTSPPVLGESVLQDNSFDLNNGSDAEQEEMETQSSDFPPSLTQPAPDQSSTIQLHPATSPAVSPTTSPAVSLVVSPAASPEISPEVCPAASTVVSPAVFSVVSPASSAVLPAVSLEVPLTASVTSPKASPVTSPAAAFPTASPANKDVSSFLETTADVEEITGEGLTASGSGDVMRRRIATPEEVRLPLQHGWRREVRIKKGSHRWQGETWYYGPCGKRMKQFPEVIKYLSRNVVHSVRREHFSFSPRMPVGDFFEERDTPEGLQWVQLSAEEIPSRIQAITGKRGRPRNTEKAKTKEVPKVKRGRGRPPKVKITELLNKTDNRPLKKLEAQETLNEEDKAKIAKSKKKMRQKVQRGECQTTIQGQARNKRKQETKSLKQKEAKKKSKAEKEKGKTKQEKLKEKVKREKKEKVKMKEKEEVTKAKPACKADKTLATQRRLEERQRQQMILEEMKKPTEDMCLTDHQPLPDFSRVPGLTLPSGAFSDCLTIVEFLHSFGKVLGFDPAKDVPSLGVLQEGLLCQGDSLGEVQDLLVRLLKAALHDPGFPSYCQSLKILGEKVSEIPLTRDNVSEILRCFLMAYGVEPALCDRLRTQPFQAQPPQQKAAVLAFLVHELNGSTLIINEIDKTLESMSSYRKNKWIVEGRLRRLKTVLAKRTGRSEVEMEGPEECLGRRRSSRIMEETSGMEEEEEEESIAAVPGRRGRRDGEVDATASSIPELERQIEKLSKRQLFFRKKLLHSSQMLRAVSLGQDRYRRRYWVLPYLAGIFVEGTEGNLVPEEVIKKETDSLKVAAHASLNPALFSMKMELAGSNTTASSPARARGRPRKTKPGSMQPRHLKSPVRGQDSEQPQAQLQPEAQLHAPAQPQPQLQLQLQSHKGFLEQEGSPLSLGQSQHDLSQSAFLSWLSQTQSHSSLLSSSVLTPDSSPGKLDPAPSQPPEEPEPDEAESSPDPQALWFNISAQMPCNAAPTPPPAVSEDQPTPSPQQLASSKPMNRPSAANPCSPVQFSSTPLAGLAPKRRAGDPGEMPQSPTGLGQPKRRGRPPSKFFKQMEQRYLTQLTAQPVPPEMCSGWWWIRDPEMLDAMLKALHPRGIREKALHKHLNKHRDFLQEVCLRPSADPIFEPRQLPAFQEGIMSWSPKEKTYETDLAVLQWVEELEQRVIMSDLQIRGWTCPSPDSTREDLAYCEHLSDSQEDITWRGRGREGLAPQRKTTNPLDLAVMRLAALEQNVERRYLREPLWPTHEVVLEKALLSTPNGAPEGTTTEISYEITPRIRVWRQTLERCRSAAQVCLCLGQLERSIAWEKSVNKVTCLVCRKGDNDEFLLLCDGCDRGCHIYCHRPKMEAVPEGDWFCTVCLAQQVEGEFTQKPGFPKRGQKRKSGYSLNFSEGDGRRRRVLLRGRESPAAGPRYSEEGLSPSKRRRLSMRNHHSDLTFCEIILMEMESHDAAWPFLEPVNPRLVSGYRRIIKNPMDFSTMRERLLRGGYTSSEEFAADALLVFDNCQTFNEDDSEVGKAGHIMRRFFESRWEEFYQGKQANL
T5 sequence (P25440 71-194 limits assumed): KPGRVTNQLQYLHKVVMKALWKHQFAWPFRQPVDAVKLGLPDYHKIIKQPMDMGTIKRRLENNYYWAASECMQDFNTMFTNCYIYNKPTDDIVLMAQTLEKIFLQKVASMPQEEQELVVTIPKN
T12 sequence (Q86U86 645-766 limits assumed): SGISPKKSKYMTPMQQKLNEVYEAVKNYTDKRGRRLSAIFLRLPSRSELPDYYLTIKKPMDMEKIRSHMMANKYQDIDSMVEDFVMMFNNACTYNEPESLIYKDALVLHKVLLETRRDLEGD
T16 sequence (Q9NSI6 1310-1430 limits assumed): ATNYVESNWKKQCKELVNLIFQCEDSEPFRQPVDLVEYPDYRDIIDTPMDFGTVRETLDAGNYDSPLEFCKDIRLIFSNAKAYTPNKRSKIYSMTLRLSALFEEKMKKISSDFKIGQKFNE
T6 sequence (P25440 348-455 limits assumed): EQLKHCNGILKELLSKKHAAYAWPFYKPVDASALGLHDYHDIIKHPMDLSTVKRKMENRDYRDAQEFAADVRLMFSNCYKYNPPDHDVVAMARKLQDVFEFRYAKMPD

With `CO[C@H]1CC[C@H](n2c([C@@H]3CCCC(=O)N3c3ccc(F)c(F)c3)nc3cc(-c4c(C)noc4C)ccc32)CC1` [CCS1477], the “normalized growth (fraction of control), replicate values” (“normalized growth (fraction of control)” for short) in assay [1] (M = -4.7) is 0.042 and 0.025 and 0.028 and 0.036 and 0.035 and 0.041 and 0.053 (2×) and 0.048 and 0.054 and 0.043 and 0.052; in assay [1] (M = -5.21) it was 0.044 and 0.033 (2×) and 0.034 and 0.036 and 0.027 and 0.037 and 0.05 and 0.032 and 0.029 and 0.031 and 0.04; in assay [1] (M = -5.73), 0.036 and 0.028 and 0.032 and 0.05 and 0.027; in [1] (M = -6.25) it was 0.073 and 0.039 (2×) and 0.064 (2×) and 0.053 and 0.055 and 0.069 and 0.061 and 0.031 and 0.047 and 0.041; in assay [1] (M = -6.76), 0.122 and 0.123 and 0.093 and 0.099 and 0.112 and 0.108 and 0.113 and 0.078 and 0.09 and 0.094 and 0.079 and 0.066; in [1] (M = -7.28), 0.344 and 0.279 and 0.281 and 0.294 and 0.307 and 0.364 and 0.263 and 0.244 and 0.257 and 0.231 and 0.199 and 0.251. Also, the “normalized growth (fraction of control)” value was 0.653 and 0.647 and 0.598 and 0.634 and 0.582 and 0.697 and 0.7 and 0.556 and 0.819 and 0.469 and 0.726 and 0.588 in [1] (M = -7.79); 0.976 and 1.03 and 0.907 and 0.959 and 0.846 and 0.924 and 0.949 and 0.892 and 1.092 and 1.013 and 0.868 in assay [1] (M = -8.31); 1.054 and 0.933 and 1.006 and 0.821 and 1.079 and 1.062 and 1.187 and 0.91 and 1.023 (2×) and 0.934 and 0.969 in assay [1] (M = -8.82); 0.021 and 0.012 (2×) and 0.014 and 0.011 (7×) and 0.01 (2×) and 0.007 (2×) and 0.009 (3×) in assay [2] (M = -4.7); 0.053 and 0.051 and 0.056 (2×) and 0.055 and 0.067 (4×) and 0.062 and 0.069 and 0.07 and 0.077 and 0.073 and 0.064 and 0.08 and 0.074 and 0.061 in assay [2] (M = -5.21); 0.176 and 0.2 and 0.173 (2×) and 0.221 and 0.192 and 0.209 and 0.163 and 0.174 and 0.198 and 0.167 and 0.182 and 0.161 and 0.164 and 0.153 and 0.149 and 0.147 and 0.172 in assay [2] (M = -5.73). Moreover, the “normalized growth (fraction of control)” value in assay [2] (M = -6.25) is 0.427 and 0.39 and 0.435 and 0.48 and 0.521 and 0.536 and 0.339 and 0.326 and 0.323 and 0.364 and 0.327 and 0.314 and 0.325 and 0.273 (2×) and 0.287 (2×) and 0.391; in assay [2] (M = -6.76) it was 0.571 and 0.619 and 0.593 and 0.57 (2×) and 0.624 and 0.745 and 0.543 and 0.601 and 0.505 and 0.54 and 0.511 and 0.346 and 0.471 and 0.506 and 0.447 and 0.463 and 0.363; in assay [2] (M = -7.28), 0.767 and 0.779 and 0.746 and 0.805 and 0.733 and 1.069 and 0.749 and 0.742 and 0.816 and 0.687. Besides, the IC50 in assay [1] (setting [3]) was determined as 39 nM; in assay [1] (HD-MB03, HDMBO3 G3MB cell growth, read-out: IC50 (nM) HDMBO3), 82 ± 32 nM; in [2] it was 1280 nM. Further, the “ΔTm (°C)” value is 6.7 °C at BRD4-BD1 (BRD4-1) (DSF thermal shift vs DMSO, BRD4-BD1, Fig 2B) and 18.3 °C on EP300 bromodomain (DSF thermal shift vs DMSO, EP300 bromodomain, Fig 2B). Also, the “∆Tm (°C) BRD4-1” value on BRD4-BD1 (BRD4-1) (setting [4]) was 6.7 ± 0.16 °C and 6.7 °C. Besides, the “∆Tm (°C) EP300” value on EP300 bromodomain (setting [4]) is 18.3 ± 0.2 °C. Also, the “ΔTm (°C) EP300” value at EP300 bromodomain (Figure 3B, DSF, EP300) came to 18.3 °C. Besides, the remaining binding at 1 µM at BAZ2A stood at 79%; at BAZ2B it was 82%; on BRD2(1), 3.5%; on BRD2(2), 57%; on BRDT(1) it was 14%; at EP300, 1.6%. Also, the remaining binding at 1 µM at FALZ worked out at 63%; at GCN5L2, 100%; on PBRM1(2), 78%; at PBRM1(5) it was 71%; at PCAF it was 88%; on SMARCA4, 61%. In addition, the remaining binding at 1 µM at TRIM24(PHD,Bromo.) stood at 54%; on WDR9(2), 14%.
As for `CNC(=O)Nc1ccc2c(c1)CCC21OC(=O)N(CC(=O)N(Cc2ccc(F)cc2)C(C)C(F)(F)F)C1=O` (stereo not drawn) [Compound A485], the half-inhibitory concentration (IC50) in assay [1] (setting [3]) came to 400 nM; in assay [2], 1970 nM.
